In paper PMC11859928, “Design, Synthesis, and Antiproliferative Activity of Novel Indole/1,2,4-Triazole Hybrids as Tubulin Polymerization Inhibitors” (Pharmaceuticals, 2025):
Like-named read-outs stand apart in the source and are kept apart here.

Experiments:
Type in all cases: cell-based, human
[1] = test system: K-562; experiment: NCI five-dose assay; settings: for GI50 / CC50: Homo sapiens, K562; for GI50: read-out: GI50 Conc. per Cell Lines; for CC50: read-out: LC50 (the source's name)
[2] = test system: RPMI-8226; experiment: NCI five-dose assay; settings: for GI50 / CC50: Homo sapiens; for GI50: read-out: GI50 Conc. per Cell Lines; for CC50: read-out: LC50 (the source's name)
[3] = test system: HCT-15; experiment: NCI five-dose assay; settings: for GI50 / CC50: Homo sapiens; for GI50: read-out: GI50 Conc. per Cell Lines; for CC50: read-out: LC50 (the source's name)
[4] = test system: HT29; experiment: NCI five-dose assay; settings: for GI50: read-out: GI50 Conc. per Cell Lines
[5] = test system: SW-620; experiment: NCI five-dose assay; settings: for GI50 / CC50: Homo sapiens; for GI50: read-out: GI50 Conc. per Cell Lines; for CC50: read-out: LC50 (the source's name)
[6] = test system: SF-268; experiment: NCI five-dose assay; settings: for GI50 / CC50: Homo sapiens; for GI50: read-out: GI50 Conc. per Cell Lines; for CC50: read-out: LC50 (the source's name)
[7] = test system: SF-539; experiment: NCI five-dose assay; settings: for GI50 / CC50: Homo sapiens; for GI50: read-out: GI50 Conc. per Cell Lines; for CC50: read-out: LC50 (the source's name)
[8] = test system: NCI/ADR-RES; experiment: NCI five-dose assay; settings: for LC50 / GI50: Homo sapiens; for GI50: read-out: GI50 Conc. per Cell Lines
[9] = test system: TK-10; experiment: NCI five-dose assay; settings: for GI50 / CC50: Homo sapiens; for GI50: read-out: GI50 Conc. per Cell Lines; for CC50: read-out: LC50 (the source's name)
[10] = test system: MDA/MB-231-ATCC; experiment: NCI five-dose assay; settings: for LC50 / GI50: Homo sapiens; for GI50: read-out: GI50 Conc. per Cell Lines
[11] = test system: Non-small cell lung cancer subpanel; experiment: NCI five-dose assay, subpanel mean; settings: for GI50: Homo sapiens, read-out: GI50 Subpanel MID b; for GI50 Selectivity Ratio (MID a/MID b): Non-small cell lung cancer subpanel
[12] = test system: Renal cancer subpanel; experiment: NCI five-dose assay, subpanel mean; settings: for GI50: Homo sapiens, read-out: GI50 Subpanel MID b; for GI50 Selectivity Ratio (MID a/MID b): Renal cancer subpanel

Q: `O/N=C(\CSc1nnc(-c2c[nH]c3ccccc23)n1-c1ccccc1)c1ccc(Cl)cc1` [Compound 7j, (Z)-2-((5-(1H-Indol-3-yl)-4-phenyl-4H-1,2,4-triazol-3-yl)thio)-1-(4-chlorophenyl) Ethanone Oxime] was tested. Which GI50 ([1]; K-562, five dose levels) did it give?
A: 2.55 µM

Q: And the CC50 ([1]; K-562, five dose levels)?
A: > 100 µM

Q: What about the GI50 ([2]; RPMI-8226, five dose levels) of the same molecule?
A: 2.38 µM

Q: And the CC50 ([2]; RPMI-8226, five dose levels)?
A: > 100 µM

Q: What about the “TGI Conc. per Cell Lines” value ([2]; RPMI-8226, five dose levels) of the same molecule?
A: 7.29 µM

Q: And the “TGI Conc. per Cell Lines” value ([3]; HCT-15, five dose levels)?
A: 13.6 µM

Q: And the GI50 ([3]; HCT-15, five dose levels)?
A: 3.2 µM

Q: And the CC50 ([3]; HCT-15, five dose levels)?
A: > 100 µM

Q: What about the “TGI Conc. per Cell Lines” value ([4]; HT29, five dose levels) of the same molecule?
A: 11.8 µM

Q: What about the GI50 ([4]; Homo sapiens, HT-29, HT29, five dose levels) of the same molecule?
A: 3.04 µM

Q: What about the CC50 ([4]; Homo sapiens, HT-29, HT29, five dose levels, read-out: LC50 (the source's name)) of the same molecule?
A: > 100 µM

Q: What about the GI50 ([5]; SW-620, five dose levels) of the same molecule?
A: 3.08 µM

Q: And the CC50 ([5]; SW-620, five dose levels)?
A: 83.2 µM

Q: And the “TGI Conc. per Cell Lines” value ([5]; SW-620, five dose levels)?
A: 16.1 µM

Q: What about the GI50 ([6]; SF-268, five dose levels) of the same molecule?
A: 2.11 µM

Q: What about the CC50 ([6]; SF-268, five dose levels) of the same molecule?
A: > 100 µM

Q: What about the “TGI Conc. per Cell Lines” value ([6]; SF-268, five dose levels) of the same molecule?
A: 5.08 µM

Q: What about the GI50 ([7]; SF-539, five dose levels) of the same molecule?
A: 10.2 µM

Q: What about the CC50 ([7]; SF-539, five dose levels) of the same molecule?
A: 51.2 µM

Q: What about the “TGI Conc. per Cell Lines” value ([7]; SF-539, five dose levels) of the same molecule?
A: 29.5 µM

Q: And the LC50 ([8]; five dose levels)?
A: > 100 µM

Q: And the GI50 ([8]; five dose levels)?
A: 2.95 µM

Q: What about the “TGI Conc. per Cell Lines” value ([8]; five dose levels) of the same molecule?
A: 9.50 µM

Q: What about the GI50 ([9]; TK-10, five dose levels) of the same molecule?
A: 3.7 µM

Q: And the CC50 ([9]; TK-10, five dose levels)?
A: > 100 µM

Q: What about the “TGI Conc. per Cell Lines” value ([9]; TK-10, five dose levels) of the same molecule?
A: 17.7 µM

Q: And the LC50 ([10]; five dose levels)?
A: > 100 µM

Q: And the GI50 ([10]; five dose levels)?
A: 1.87 µM

Q: What about the “TGI Conc. per Cell Lines” value ([10]; five dose levels) of the same molecule?
A: 3.66 µM

Q: What about the GI50 ([11]; Non-small cell lung cancer, average sensitivity of all cell lines of the subpanel) of the same molecule?
A: 3.86 µM

Q: What about the “GI50 Selectivity Ratio (MID a/MID b)” value [11] of the same molecule?
A: 0.945

Q: And the GI50 ([12]; Renal cancer, average sensitivity of all cell lines of the subpanel)?
A: 5.23 µM

Q: And the “GI50 Selectivity Ratio (MID a/MID b)” value [12]?
A: 0.69

Q: `Cc1ccc(/C(CSc2nnc(-c3c[nH]c4ccccc34)n2-c2ccccc2)=N/O)cc1` [Compound 7h, (Z)-2-((5-(1H-Indol-3-yl)-4-phenyl-4H-1,2,4-triazol-3-yl)thio)-1-(p-tolyl)ethanone Oxime] was tested. Which CC50 ([1]; K-562, Leukemia, 48 h) did it give?
A: > 100 µM

Q: What about the GI50 ([1]; K-562, Leukemia) of the same molecule?
A: 2.01 µM

Q: And the “TGI Conc. per Cell Lines” value ([1]; K-562, Leukemia)?
A: 4.97 µM

Q: What about the CC50 ([2]; RPMI-8226, Leukemia, 48 h) of the same molecule?
A: > 100 µM

Q: What about the GI50 ([2]; RPMI-8226, Leukemia) of the same molecule?
A: 2.05 µM

Q: What about the “TGI Conc. per Cell Lines” value ([2]; RPMI-8226, Leukemia) of the same molecule?
A: 4.81 µM

Q: And the “TGI Conc. per Cell Lines” value ([3]; HCT-15, Colon cancer)?
A: 3.34 µM

Q: What about the CC50 ([3]; HCT-15, Colon cancer, 48 h) of the same molecule?
A: 6.37 µM

Q: And the GI50 ([3]; HCT-15, Colon cancer)?
A: 1.75 µM

Q: What about the “TGI Conc. per Cell Lines” value ([4]; HT29, Colon cancer) of the same molecule?
A: 4.43 µM

Q: And the GI50 ([4]; Homo sapiens, HT-29, HT29, Colon cancer)?
A: 1.99 µM

Q: What about the CC50 ([5]; SW-620, Colon cancer, 48 h) of the same molecule?
A: 7.04 µM

Q: What about the GI50 ([5]; SW-620, Colon cancer) of the same molecule?
A: 1.79 µM

Q: And the “TGI Conc. per Cell Lines” value ([5]; SW-620, Colon cancer)?
A: 3.55 µM

Q: What about the CC50 ([6]; SF-268, CNS cancer, 48 h) of the same molecule?
A: > 100 µM

Q: And the GI50 ([6]; SF-268, CNS cancer)?
A: 1.99 µM

Q: And the “TGI Conc. per Cell Lines” value ([6]; SF-268, CNS cancer)?
A: 4.66 µM

Q: And the CC50 ([7]; SF-539, CNS cancer, 48 h)?
A: 9.43 µM

Q: And the GI50 ([7]; SF-539, CNS cancer)?
A: 2.06 µM

Q: And the “TGI Conc. per Cell Lines” value ([7]; SF-539, CNS cancer)?
A: 4.41 µM

Q: And the LC50 ([8]; Ovarian cancer, 48 h)?
A: 7.59 µM

Q: What about the GI50 ([8]; Ovarian cancer) of the same molecule?
A: 2 µM

Q: And the “TGI Conc. per Cell Lines” value ([8]; Ovarian cancer)?
A: 3.90 µM

Q: What about the CC50 ([9]; TK-10, Renal cancer, 48 h) of the same molecule?
A: 7.9 µM

Q: What about the GI50 ([9]; TK-10, Renal cancer) of the same molecule?
A: 1.9 µM

Q: And the “TGI Conc. per Cell Lines” value ([9]; TK-10, Renal cancer)?
A: 3.87 µM

Q: And the “TGI Conc. per Cell Lines” value ([10]; Breast cancer)?
A: 3.33 µM

Q: And the LC50 ([10]; Breast cancer, 48 h)?
A: 6.27 µM

Q: What about the GI50 ([10]; Breast cancer) of the same molecule?
A: 1.77 µM

Q: What about the GI50 ([11]; average sensitivity of all cell lines of the Non-small cell lung cancer subpanel) of the same molecule?
A: 4.44 µM

Q: And the “GI50 Selectivity Ratio (MID a/MID b)” value [11]?
A: 0.68

Q: And the GI50 ([12]; average sensitivity of all cell lines of the Renal cancer subpanel)?
A: 5.77 µM

Q: And the “GI50 Selectivity Ratio (MID a/MID b)” value [12]?
A: 0.52
